The subject of series [1] is Bibionidae. The following applies: chronic/long-term, duration: 28 days.
Series [2] concerns Rattus norvegicus.
For series [3], the system named is Aphidius rhopalosiphi. The following applies: acute; duration: 7 days; mortality.
The test system of series [4] is Pimephales promelas. The following applies: chronic/long-term; duration: 35 days; growth.
In series [5] the test system is Apis mellifera. The following applies: acute, mortality.
For series [6], the system named is Colinus virginianus.
Series [7] has as its system Oncorhynchus mykiss. The note with it: acute; duration: 96 hours; mortality.
The test system of series [8] is Tagia sp. The following applies: acute; duration: 14 days; mortality.
Series [9] has as its system Daphnia magna. The note with it: chronic/long-term; duration: 21 days; reproduction.

Consider one compound from EPA's ToxValDB 9.5 (doi:10.2903/j.efsa.2009.327r).

≈ marks a conversion by molar mass, not a printed value.

For the compound `CCCN(CCC)c1c([N+](=O)[O-])cc(C(F)(F)F)cc1[N+](=O)[O-]` [Trifluralin], the NOEC amounted to 0.25 mg/L in [1] (development); 810 mg/kg in series [1] (mortality); 0.0003 mg/L in series [4]; 103 mg/kg-day in [6] (reproduction developmental); 0.0507 mg/L in [9]. In addition, the LD50 is above 5000 mg/kg in series [2] (acute, oral, mortality); above 100 µg/piece in [5] (duration: 48 hours, dermal); above 80 µg/piece in series [5] (oral, unspecified); above 2250 mg/kg in series [6] (acute, oral, mortality). Moreover, the lowest-observed-adverse-effect level (LOAEL) in [2] (chronic, duration: 2 years, Fischer 344, histopathology: neoplastic) is 30 mg/kg-day. Also, the NOAEL in series [2] (reproduction developmental, reproduction) stood at 148 mg/kg-day; in [2] (subchronic, duration: 90 days, oral) it was 2.6 mg/kg-day. The same compound gave an LEL in series [3] of 1200 g/ha. The LC50 in [6] (acute, oral, diet, mortality) is 574 mg/kg-day; in series [7] it was 0.088 µg/mL (≈ 0.262 µM); in series [8] it was above 1000 mg/kg.

The LOAEL is the lowest tested level that showed an adverse finding. In general, NOAEL refers to the highest tested level that showed no adverse finding.
